Assay results reported in PubChem BioAssay (NCI).
Several values for one entry are separate records, joined by “and”; a condition that tells them apart may be missing. Identical values can stand only once.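 How tested: cells in 96-well plates exposed to compound for 48 hours at five concentrations. GI50 = concentration required for 50% inhibition of growth. TGI: total growth inhibition.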

Legend:
Assay in all cases: DTP human tumour cell line panel, 48 h
[1] = tested on: COLO 205 colon
[2] = tested on: NCI-H460 lung
[3] = tested on: OVCAR-5 ovarian
[4] = tested on: RPMI-8226 leukemia
[5] = tested on: SK-MEL-28 melanoma
[6] = tested on: SK-MEL-5 melanoma
[7] = tested on: SK-OV-3 ovarian
[8] = tested on: SNB-75 CNS
[9] = tested on: SW-620 colon
[10] = tested on: TK-10 renal

| Structure (SMILES) | TGI [1] | TGI [2] | TGI [3] | TGI [4] | TGI [5] | TGI [6] | TGI [7] | TGI [8] | TGI [9] | TGI [10] | GI50 [1] | GI50 [2] | GI50 [3] | GI50 [4] | GI50 [5] | GI50 [6] | GI50 [7] | GI50 [8] | GI50 [9] |
| --- | --- | --- | --- | --- | --- | --- | --- | --- | --- | --- | --- | --- | --- | --- | --- | --- | --- | --- | --- |
| CC1=NN(c2ccccc2)C(=O)/C1=C\c1c(C)[nH]n(-c2ccccc2)c1=O | > 100 µM | > 100 µM | > 100 µM | 83.3 µM | > 100 µM | > 100 µM | > 100 µM | > 100 µM | > 100 µM | > 100 µM |  |  |  |  |  |  |  |  |  |
| Cc1cccc(NC(=S)Nc2cccc(Cl)c2)n1 | > 100 µM | > 100 µM | > 100 µM | > 100 µM | > 100 µM | > 100 µM | 98.6 µM | > 100 µM | > 100 µM | > 100 µM |  |  |  |  |  |  |  |  |  |
| CCOP(=O)(OCC)C(c1ccccc1)N(C(=O)NC(F)(F)F)c1ccc(C)cc1 (stereo not drawn) | > 100 µM | > 100 µM | > 100 µM | > 100 µM | > 100 µM | > 100 µM | > 100 µM | > 100 µM | > 100 µM | > 100 µM |  |  |  |  |  |  |  |  |  |
| C(=Nc1ccc(-c2nc3ccccc3s2)cc1)c1cccs1 | > 100 µM | > 100 µM | > 100 µM | > 100 µM | > 100 µM | > 100 µM | > 100 µM | > 100 µM | > 100 µM | 78 µM |  |  |  |  |  |  |  |  |  |
| O=C1CC(c2cccc([N+](=O)[O-])c2)C2(C(=O)NC(=S)NC2=O)C(c2cccc([N+](=O)[O-])c2)C1 (stereo not drawn) | > 100 µM | > 100 µM | > 100 µM | > 100 µM | > 100 µM | > 100 µM | > 100 µM | > 100 µM | > 100 µM | 47.7 µM |  |  |  |  |  |  |  |  |  |
| O=C(Oc1cncc(Cl)c1)c1cc2ccccc2sc1=O | > 100 µM | > 100 µM | > 100 µM | > 100 µM | > 100 µM | > 100 µM | > 100 µM | > 100 µM | > 100 µM | > 100 µM |  |  |  |  |  |  |  |  |  |
| Oc1ccc(Nc2nc(Cl)c3[nH]cnc3n2)cc1 | > 100 µM | > 100 µM | > 100 µM | > 100 µM |  | > 100 µM | > 100 µM | > 100 µM | > 100 µM | > 100 µM |  |  |  |  |  |  |  |  |  |
| O=[N+]([O-])/C(Cl)=C(\NCCO)C(Cl)=C(Cl)Cl | 79.3 µM | > 100 µM | > 100 µM | 40.5 µM | > 100 µM | > 100 µM | > 100 µM | > 100 µM | 77.4 µM | > 100 µM |  |  |  |  |  |  |  |  |  |
| Cc1c(C(=O)O)sc2nc[nH]c(=O)c12 | > 100 µM | > 100 µM | > 100 µM | > 100 µM | > 100 µM | > 100 µM | > 100 µM | > 100 µM | > 100 µM | > 100 µM |  |  |  |  |  |  |  |  |  |
| COC(=O)c1ccc(C)cc1C1CN=NC12Cc1cccc(C)c1C2=O (stereo not drawn) | > 100 µM | > 100 µM | > 100 µM | 49.8 µM | 91.8 µM | 47.6 µM | > 100 µM | > 100 µM | > 100 µM | > 100 µM |  |  |  |  |  |  |  |  |  |
| Cc1noc(-c2ccc(C(=O)O)[nH]2)c1Br | > 100 µM | > 100 µM | > 100 µM | > 100 µM | > 100 µM | > 100 µM | > 100 µM | > 100 µM | > 100 µM | > 100 µM |  |  |  |  |  |  |  |  |  |
| Cc1c2oc(=O)c(C#N)cc2c2ccccn12 | > 100 µM | > 100 µM | > 100 µM | > 100 µM | > 100 µM | > 100 µM | > 100 µM | > 100 µM | > 100 µM | > 100 µM |  |  |  |  |  |  |  |  |  |
| CCN(CC)CC[n+]1ccc2c(C)c3[nH]c4ccccc4c3c(C)c2c1 | 0.525 µM and 0.878 µM and 1.55 µM | 2.31 µM and 2.16 µM and 1.01 µM | 5.15 µM and 15 µM and 7.28 µM | 4.87 µM and 0.536 µM and 2.95 µM | 1.3 µM and 6.15 µM and 2.1 µM | 1.57 µM and 1.28 µM and 2.45 µM | 6.13 µM and 11.7 µM and 11.4 µM | 1.14 µM and 0.847 µM and 1.23 µM | 5.65 µM and 13.2 µM and 6.96 µM | 25.3 µM | 0.131 µM and 0.297 µM and 0.412 µM | 0.332 µM | 2.74 µM | < 0.0471 µM | 1.13 µM | 0.239 µM | 1.35 µM and 2.62 µM and 3.92 µM | 0.148 µM | 0.654 µM |
| C#CCn1c(I)cc2c(c1=O)COC(=O)[C@]2(O)CC | > 100 µM | > 100 µM | > 100 µM | > 100 µM | > 100 µM | > 100 µM | > 100 µM | > 100 µM | > 100 µM | > 100 µM |  |  |  |  |  |  |  |  |  |
| Oc1c(NCn2nc(CCCCCCCCc3nn(CNc4ccc5ccccc5c4O)c(=S)o3)oc2=S)ccc2ccccc12 | > 100 µM | > 100 µM | > 100 µM | > 100 µM | > 100 µM | > 100 µM | > 100 µM | > 100 µM | > 100 µM | > 100 µM |  |  |  |  |  |  |  |  |  |
| CC(C)(C)c1cc(C(C)(C)C)c(SC2OC(CO)C(O)C(O)C2O)c(O)c1O (stereo not drawn) | > 81.4 µM | 10.5 µM | 32.1 µM | 76.1 µM | 70.5 µM | 18.6 µM | 32.9 µM | 6.05 µM | 49.9 µM | 46.3 µM |  |  |  |  |  |  |  |  |  |
| COc1ccc(NCn2nc(CCCCCCCCc3nn(CNc4ccc(OC)cc4)c(=S)o3)oc2=S)cc1 | > 100 µM | > 100 µM | > 100 µM | > 100 µM | > 100 µM | > 100 µM | > 100 µM | > 100 µM | > 100 µM | > 100 µM |  |  |  |  |  |  |  |  |  |
| CC(=O)c1c(-c2ccco2)c(C#N)c(=S)n(C2OC(CO)C(O)C(O)C2O)c1C (stereo not drawn) | > 100 µM | > 100 µM | > 100 µM | > 100 µM | > 100 µM | > 100 µM | > 100 µM | > 100 µM | > 100 µM | > 100 µM |  |  |  |  |  |  |  |  |  |
| CC(C)(C)OC(=O)NCC(c1c[nH]c2ccccc12)c1c[nH]c2ccccc12 | 29.1 µM | 30.1 µM | 31.4 µM | 22.2 µM | 35.3 µM | 26.7 µM | 33.5 µM | 28.1 µM | 41 µM | 28.9 µM |  |  |  |  |  |  |  |  |  |
| COc1ccc(N=C(C)C(C)=Nc2ccc(OC)cc2)cc1 | 37.1 µM | > 100 µM | > 100 µM | > 100 µM | > 100 µM | > 100 µM | > 100 µM | > 100 µM | > 100 µM | > 100 µM |  |  |  |  |  |  |  |  |  |
